From patent publication US20070287180A1, “Linear Dna Fragment For Markerless Deletion, Novel Strain Having Inhibited Formation Of Biofilm And Preparation Method Thereof” (priority 2004, published 2007)

System: E. coli DEB31
Assay: Antibiotics susceptibility of biofilm-grown cells, plate counting (modified Whiteley method)
Type: cell-based, Escherichia coli
Details: for antibiotic concentration at which the number of living E. coli DEB31 equals that of wild-type MG1655 at the standard concentration: 24 h biofilm, then 10 h antibiotic at 30° C., MG1655 standard concentration: ampicillin 50, streptomycin 30, rifampicin 150 μg/ml
Experimental: The antibiotics susceptibility of the variants was measured using the modified technique developed by Whiteley (Whiteley M., Nature, 413, 860, 2001). In other words, 96-well polystyrene plates containing 0.2 ml of LB culture were inoculated with the variants to be incubated for 24 hours to allow biofilm formation. Each well was added with various concentrations of antibiotics ranging from 0.25 μg to 64 μg and were incubated for 10 hours. The number of living cells was measured by plate counting method.
After incubating the variants in 96-well plates containing 200 μl of LB medium for 24 hours, the serial diluted antibiotics was added to each well at the following concentration ranges: ampicillin, from 0 to 128 μg/ml; streptomycin, from 0 to 64 μg/ml; and rifampicin, from 0 to 256 μg/ml. The cells were incubated for additional 10 hours at 30° C. after antibiotics addition. Then, the number of the living E. coli variants was counted using the standard plate counting method.

Row | Compound | antibiotic concentration at which the number of living E. coli DEB31 equals that of wild-type MG1655 at the standard concentration [µg/mL] | increase of antibiotics susceptibility versus wild-type MG1655 (DEB31 / biofilm-deficient variants vs MG1655)
1 | CO[C@H]1/C=C/O[C@@]2(C)Oc3c(C)c(O)c4c(O)c(c(/C=N/N5CCN(C)CC5)c(O)c4c3C2=O)NC(=O)/C(C)=C\C=C\[C@H](C)[C@H](O)[C@@H](C)[C@@H](O)[C@@H](C)[C@H](OC(C)=O)[C@@H]1C [rifampicin] | 32 | about 5 fold
2 | [H]/N=C(/N)N[C@H]1[C@H](O)[C@@H](O)[C@H](O[C@@H]2O[C@@H](C)[C@](O)(C=O)[C@H]2O[C@@H]2O[C@@H](CO)[C@H](O)[C@@H](O)[C@@H]2NC)[C@@H](N/C(N)=N\[H])[C@@H]1O [streptomycin] | 8 | 
3 | CC1(C)S[C@@H]2[C@H](NC(=O)[C@H](N)c3ccccc3)C(=O)N2[C@H]1C(=O)O [ampicillin] | 2 | 
